Test results from patent US20020035061A1, “COMPOSITIONS AND METHODS FOR TREATING INFECTIONS USING CATIONIC PEPTIDES ALONE OR IN COMBINATION WITH ANTIBIOTICS” (priority 1996, published 2002).
Like-named read-outs stand apart in the source and are kept apart here.

Experiments:
Format in all cases: cell-based
A. calcoaceticus = system: A. calcoaceticus
E. cloacae = system: E. cloacae
E. coli = conditions: for Peptide MIC values: agarose dilution
E. faecalis = system: E. faecalis
E. faecium = conditions: agarose dilution
H. influenzae = assay: Agarose dilution assay (MIC)
K. pneumoniae = system: K. pneumoniae
P. aeruginosa = conditions: for Peptide MIC values: agarose dilution
P. vulgaris = assay: Agarose dilution assay (MIC); conditions: agarose dilution; P. vulgaris ATCC 13315
S. aureus = conditions: for Peptide MIC values: agarose dilution
S. epidermidis = S. epidermidis strain SE010
S. maltophilia = system: S. maltophilia
S. marcescens = conditions: for Peptide MIC values: agarose dilution
S. pneumoniae = assay: Agarose dilution assay (MIC); conditions: for MIC: S. pneumoniae strain SBSPN3; for Peptide MIC values: agarose dilution
bacterial isolates = assay: microbe, parasite or virus in culture
[1] = system: inherently resistant microorganisms; assay: microbe, parasite or virus in culture
S. pyogenes = assay: Agarose dilution assay (MIC); conditions: S. pyogenes strain SPY005
[2] = system: microorganisms with acquired resistance; assay: microbe, parasite or virus in culture; conditions: for Peptide MIC Alone: Piperacillin section; for FIC: peptide + Piperacillin

With ILKKWPWWPWRK [MBI 11B4CN] the MIC (A. calcoaceticus; A. calcoaceticus strain AC001) was >128 µg/mL, the MIC (E. cloacae; E. cloacae strain ECL007) was >128 µg/mL and the MIC (E. coli; E. coli strain ECO003) was 16 µg/mL. The “Peptide MIC values” (E. coli; E. coli ATCC 25922) was 32 µg/mL, the “Peptide MIC values” (E. coli; E. coli ESS) was 8 µg/mL and the “Peptide MIC values” (E. coli; E. coli NCTC 10418) was 8 µg/mL. The MIC (E. faecalis; E. faecalis strain EFS002) was 16 µg/mL, the “Peptide MIC values” (E. faecium) was 8 µg/mL and the MIC (H. influenzae; H. influenzae strain HIN002) was >128 µg/mL. The MIC (K. pneumoniae; K. pneumoniae strain KP002) was 128 µg/mL, the MIC (P. aeruginosa; P. aeruginosa strain PA006) was >128 µg/mL and the “Peptide MIC values” (P. aeruginosa; P. aeruginosa ATCC 27853) was >128 µg/mL. The “Peptide MIC values” (P. aeruginosa; P. aeruginosa NCTC 10662) was >128 µg/mL, the “Peptide MIC values” (P. vulgaris) was >128 µg/mL and the MIC (S. aureus; S. aureus strain SA004) was 2 µg/mL. For the same sequence, the “Peptide MIC values” (S. aureus; S. aureus ATCC 29213) was 1 µg/mL, the “Peptide MIC values” (S. aureus; S. aureus MRSA9) was 4 µg/mL and the “Peptide MIC values” (S. aureus; S. aureus MRSA13) was 32 µg/mL. For the same sequence, the “Peptide MIC values” (S. aureus; S. aureus MRSA17) was 8 µg/mL, the “Peptide MIC values” (S. aureus; S. aureus SA206) was 16 µg/mL and the MIC (S. epidermidis) was 4 µg/mL. The MIC (S. maltophilia; S. maltophilia strain SMA002) was 64 µg/mL, the MIC (S. marcescens; S. marcescens strain SBSM2) was >128 µg/mL and the MIC (S. marcescens; S. marcescens strain SMS004) was >128 µg/mL. For the same sequence, the “Peptide MIC values” (S. marcescens; S. marcescens SM76) was >128 µg/mL, the “Peptide MIC values” (S. marcescens; S. marcescens SM82) was >128 µg/mL and the MIC (S. pneumoniae) was 128 µg/mL. For the same sequence, the “Peptide MIC values” (S. pneumoniae; S. pneumoniae 406LE8) was 128 µg/mL, the “Peptide MIC values” (S. pneumoniae; S. pneumoniae 60120) was >128 µg/mL and the “Peptide MIC values” (S. pneumoniae; S. pneumoniae ATCC 49619) was 64 µg/mL. The “Mupirocin MIC + Peptide” value (bacterial isolates; E. coli SBECO1) was 30 µg/mL, the “Peptide MIC + Mupirocin” value (bacterial isolates; E. coli SBECO1) was 0.5 µg/mL and the “Peptide MIC Alone” value (bacterial isolates; E. coli SBECO1, Mupirocin section) was 8 µg/mL. The “Mupirocin MIC + Peptide” value (bacterial isolates; E. coli SBECO2) was 30 µg/mL, the “Peptide MIC + Mupirocin” value (bacterial isolates; E. coli SBECO2) was 2 µg/mL and the “Peptide MIC Alone” value (bacterial isolates; E. coli SBECO2, Mupirocin section) was 32 µg/mL. The FIC (bacterial isolates; peptide + Mupirocin, E. coli SBECO1) was 0.36, the FIC (bacterial isolates; peptide + Mupirocin, E. coli SBECO2) was 0.09 and the “Peptide MIC + Mupirocin” value ([1]; E. coli) was 8 µg/mL. The “Peptide MIC Alone” value ([1]; E. coli, Mupirocin section) was 16 µg/mL and the FIC ([1]; peptide + Mupirocin, E. coli) was 0.53.

For ILRWVWWVWRRK [MBI 11F4CN], the “MIC, Peptide” value (A. calcoaceticus; A. calcoaceticus AC002, unmodified parent peptide) was 4 µg/mL, the MIC (A. calcoaceticus; A. calcoaceticus strain AC003) was 16 µg/mL and the MIC (E. cloacae; E. cloacae strain ECL006) was 16 µg/mL. For the same sequence, the “MIC, Peptide” value (E. coli; E. coli ECO005, unmodified parent peptide) was 8 µg/mL, the MIC (E. coli; E. coli strain ECO001) was 8 µg/mL and the “MIC, Peptide” value (E. faecalis; E. faecalis EFS008, unmodified parent peptide) was 2 µg/mL. For the same sequence, the MIC (E. faecalis; E. faecalis strain EFS004) was 8 µg/mL, the MIC (H. influenzae; H. influenzae strain HIN003) was >128 µg/mL and the “MIC, Peptide” value (K. pneumoniae; K. pneumoniae KP001, unmodified parent peptide) was 4 µg/mL. For the same sequence, the MIC (K. pneumoniae; K. pneumoniae strain KP001) was 8 µg/mL, the “MIC, Peptide” value (P. aeruginosa; P. aeruginosa PA004, unmodified parent peptide) was 32 µg/mL and the MIC (P. aeruginosa; P. aeruginosa strain PA020) was 32 µg/mL. The “MIC, Peptide” value (S. aureus; S. aureus SA014, unmodified parent peptide) was 2 µg/mL, the MIC (S. aureus; S. aureus strain SA007) was 1 µg/mL and the MIC (S. epidermidis) was 2 µg/mL. For the same sequence, the “MIC, Peptide” value (S. maltophilia; S. maltophilia SMA002, unmodified parent peptide) was 16 µg/mL, the MIC (S. maltophilia; S. maltophilia strain SMA006) was 16 µg/mL and the MIC (S. marcescens; S. marcescens strain SBSM1) was >128 µg/mL. The MIC (S. pneumoniae) was >128 µg/mL, the MIC (S. pyogenes) was 32 µg/mL and the “Peptide MIC + Piperacillin” value (bacterial isolates; E. cloacae 10) was 8 µg/mL. The “Piperacillin MIC + Peptide” value (bacterial isolates; E. cloacae 10) was 4 µg/mL, the “Peptide MIC Alone” value (bacterial isolates; E. cloacae 10, Piperacillin section) was 16 µg/mL and the “Peptide MIC + Piperacillin” value (bacterial isolates; H. influenzae SB1) was 0.125 µg/mL. The “Piperacillin MIC + Peptide” value (bacterial isolates; H. influenzae SB1) was 0.25 µg/mL, the “Peptide MIC Alone” value (bacterial isolates; H. influenzae SB1, Piperacillin section) was >128 µg/mL and the “Peptide MIC + Piperacillin” value (bacterial isolates; P. aeruginosa 7) was 8 µg/mL. The “Piperacillin MIC + Peptide” value (bacterial isolates; P. aeruginosa 7) was 64 µg/mL, the “Peptide MIC Alone” value (bacterial isolates; P. aeruginosa 7, Piperacillin section) was 64 µg/mL and the “Piperacillin MIC + Peptide” value (bacterial isolates; P. aeruginosa 23) was 64 µg/mL. The “Peptide MIC Alone” value (bacterial isolates; P. aeruginosa 23, Piperacillin section) was 64 µg/mL, the “Peptide MIC + Piperacillin” value (bacterial isolates; S. aureus 19 MRSA) was 2 µg/mL and the “Piperacillin MIC + Peptide” value (bacterial isolates; S. aureus 19 MRSA) was 4 µg/mL. For the same sequence, the “Peptide MIC Alone” value (bacterial isolates; S. aureus 19 MRSA, Piperacillin section) was 4 µg/mL, the “Peptide MIC + Piperacillin” value (bacterial isolates; S. maltophilia 2) was 0.5 µg/mL and the “Piperacillin MIC + Peptide” value (bacterial isolates; S. maltophilia 2) was 32 µg/mL. For the same sequence, the “Peptide MIC Alone” value (bacterial isolates; S. maltophilia 2, Piperacillin section) was 16 µg/mL, the “Peptide MIC + Piperacillin” value (bacterial isolates; S. marcescens 1) was 0.5 µg/mL and the “Piperacillin MIC + Peptide” value (bacterial isolates; S. marcescens 1) was 64 µg/mL. The “Peptide MIC Alone” value (bacterial isolates; S. marcescens 1, Piperacillin section) was >128 µg/mL, the FIC (bacterial isolates; peptide + Piperacillin, E. cloacae 10) was 0.52 and the FIC (bacterial isolates; peptide + Piperacillin, H. influenzae SB1) was 0.50. It also gave an FIC (bacterial isolates; peptide + Piperacillin, P. aeruginosa 7) of 0.38, an FIC (bacterial isolates; peptide + Piperacillin, P. aeruginosa 23) of 0.31 and an FIC (bacterial isolates; peptide + Piperacillin, S. aureus 19 MRSA) of 0.53. For the same sequence, the FIC (bacterial isolates; peptide + Piperacillin, S. maltophilia 2) was 0.53, the FIC (bacterial isolates; peptide + Piperacillin, S. marcescens 1) was 0.25 and the “Peptide MIC + Piperacillin” value ([1]; S. aureus MRSA) was 2 µg/mL. For the same sequence, the “Peptide MIC Alone” value ([1]; S. aureus MRSA, Piperacillin section) was 4 µg/mL, the FIC ([1]; peptide + Piperacillin, S. aureus MRSA) was 0.53 and the “Peptide MIC + Piperacillin” value ([2]; E. cloacae 10) was 8 µg/mL. The “Piperacillin MIC + Peptide” value ([2]; E. cloacae 10) was 4 µg/mL, the “Peptide MIC Alone” value ([2]; E. cloacae 10) was 16 µg/mL and the “Peptide MIC + Piperacillin” value ([2]; H. influenzae 1) was 64 µg/mL. For the same sequence, the “Piperacillin MIC + Peptide” value ([2]; H. influenzae 1) was 16 µg/mL, the “Peptide MIC Alone” value ([2]; H. influenzae 1) was >128 µg/mL and the “Peptide MIC + Piperacillin” value ([2]; P. aeruginosa 7) was 8 µg/mL. For the same sequence, the “Piperacillin MIC + Peptide” value ([2]; P. aeruginosa 7) was 64 µg/mL, the “Peptide MIC Alone” value ([2]; P. aeruginosa 7) was 64 µg/mL and the “Peptide MIC + Piperacillin” value ([2]; P. aeruginosa 23) was 4 µg/mL. For the same sequence, the “Piperacillin MIC + Peptide” value ([2]; P. aeruginosa 23) was 64 µg/mL, the “Peptide MIC Alone” value ([2]; P. aeruginosa 23) was 64 µg/mL and the “Peptide MIC + Piperacillin” value ([2]; S. maltophilia 2) was 4 µg/mL. The “Piperacillin MIC + Peptide” value ([2]; S. maltophilia 2) was 16 µg/mL, the “Peptide MIC Alone” value ([2]; S. maltophilia 2) was 16 µg/mL and the “Peptide MIC + Piperacillin” value ([2]; S. marcescens 1) was 4 µg/mL. The “Piperacillin MIC + Peptide” value ([2]; S. marcescens 1) was 16 µg/mL, the “Peptide MIC Alone” value ([2]; S. marcescens 1) was >128 µg/mL and the FIC ([2]; E. cloacae 10) was 0.52. It also gave an FIC ([2]; H. influenzae 1) of 0.75, an FIC ([2]; P. aeruginosa 7) of 0.38 and an FIC ([2]; P. aeruginosa 23) of 0.31. For the same sequence, the FIC ([2]; S. maltophilia 2) was 0.50 and the FIC ([2]; S. marcescens 1) was 0.08.
